Results: ChEMBL document CHEMBL5620408, “Discovery of novel diarypyrimidine derivatives bearing six-membered non-aromatic heterocycles as potent HIV-1 NNRTIs with improved anti-resistance and drug-like profiles” (Eur J Med Chem, 2023)
One block for each compound: values may come before it. The source made the active and inactive calls. The calls are words filed in the database; no cut-off is given here.

What was measured:
[1] = system: Human immunodeficiency virus 1; assay: Antiviral activity against HIV1 NL4-3 infected in MT4 cells at 25 ng/ml; type: functional, organism-based
[2] = molecular target: Human immunodeficiency virus type 1 reverse transcriptase (Human immunodeficiency virus 1, UniProt Q72547); assay: Inhibition of wild type HIV-1 reverse transcriptase
MT4 = assay: Cytotoxicity against human MT4 cells; type: toxicity, cell-based
[3] = Cytotoxicity against human MT4 cells assessed as reduction in cell viability by MTT assay; type: toxicity, cell-based
[4] = system: Human immunodeficiency virus 1; assay: microbe, parasite or virus in culture; conditions: Human immunodeficiency virus 1, RES056, MT4
Description: (§1) Antiviral activity against HIV1 RES056 infected in MT-4 cells assessed as viral induced cytopathic effect by MTT assay

[5] = system: Human immunodeficiency virus 1; assay: microbe, parasite or virus in culture; conditions: Human immunodeficiency virus 1, IIIB, MT4
Description: Antiviral activity against HIV1 IIIB infected in MT-4 cells assessed as viral induced cytopathic effect by MTT assay

[6] = Selectivity index, ratio of CC50 for human MT4 cells to EC50 for antiviral activity against HIV IIIB
[7] = system: Human immunodeficiency virus 1; assay: Antiviral activity against HIV1 harboring K103N mutant infected in MT4 cells; type: functional, organism-based; conditions: Human immunodeficiency virus 1, MT4
[8] = Selectivity index, ratio of CC50 for human MT4 cells to EC50 for antiviral activity against HIV RES056
[9] = system: Human immunodeficiency virus 1; assay: Antiviral activity against HIV1 harboring F227L/V106A double mutant infected in MT4 cells; type: functional, organism-based; conditions: Human immunodeficiency virus 1, MT4
[10] = system: Human immunodeficiency virus 1; assay: Antiviral activity against HIV1 harboring L100I mutant infected in MT4 cells; type: functional, organism-based; conditions: Human immunodeficiency virus 1, MT4
[11] = system: Human immunodeficiency virus 1; assay: Antiviral activity against HIV1 NL4-3 infected in MT4 cells; type: functional, organism-based; conditions: Human immunodeficiency virus 1, NL4-3, MT4
[12] = system: Human immunodeficiency virus 1; assay: Antiviral activity against HIV1 harboring E138K mutant infected in MT4 cells; type: functional, organism-based; conditions: Human immunodeficiency virus 1, MT4
[13] = system: Human immunodeficiency virus 1; assay: Antiviral activity against HIV1 harboring Y181C mutant infected in MT4 cells; type: functional, organism-based; conditions: Human immunodeficiency virus 1, MT4
[14] = system: Human immunodeficiency virus 1; assay: Antiviral activity against HIV1 harboring Y188L mutant infected in MT4 cells; type: functional, organism-based; conditions: Human immunodeficiency virus 1, MT4
[15] = system: Human immunodeficiency virus 1; conditions: RES056, MT4
Description: as §1

[16] = AUCinfinity in Sprague-Dawley rat at 2 mg/kg, iv; type: ADME, organism-based; conditions: in vivo
Cytochrome P450 2C9 = Cytochrome P450 2C9 (Homo sapiens, UniProt P11712); assay: Inhibition of CYP2C9 (unknown origin); type: ADME
Chain of Cytochrome P450 2C9 (P11712 whole entry): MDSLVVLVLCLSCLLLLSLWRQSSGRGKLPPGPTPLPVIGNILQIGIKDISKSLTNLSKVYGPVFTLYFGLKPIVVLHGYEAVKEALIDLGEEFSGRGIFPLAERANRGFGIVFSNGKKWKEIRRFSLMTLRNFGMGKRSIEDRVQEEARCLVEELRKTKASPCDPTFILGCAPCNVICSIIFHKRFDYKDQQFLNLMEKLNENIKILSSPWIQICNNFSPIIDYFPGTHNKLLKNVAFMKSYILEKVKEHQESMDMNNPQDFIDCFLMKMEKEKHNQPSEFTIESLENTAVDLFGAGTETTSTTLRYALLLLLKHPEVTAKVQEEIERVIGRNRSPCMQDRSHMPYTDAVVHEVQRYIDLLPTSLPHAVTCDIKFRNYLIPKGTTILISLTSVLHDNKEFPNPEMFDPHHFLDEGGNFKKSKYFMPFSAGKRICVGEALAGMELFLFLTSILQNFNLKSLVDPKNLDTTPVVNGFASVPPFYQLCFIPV

[17] = Clearance in Sprague-Dawley rat at 2 mg/kg, iv; type: ADME, organism-based; conditions: in vivo
[18] = system: Human immunodeficiency virus 1; assay: Potency index, ratio of efavirenz EC50 to test compound EC50 for antiviral activity against HIV1 harboring K103 N mutant; type: functional
[19] = system: Human immunodeficiency virus 1; assay: Potency index, ratio of etravirine EC50 to test compound EC50 for antiviral activity against HIV1 IIIB; type: functional
[20] = system: Human immunodeficiency virus 1; assay: Potency index, ratio of zidovudine EC50 to test compound EC50 for antiviral activity against HIV1 IIIB; type: functional
[21] = Volume of distribution in Sprague-Dawley rat at 2 mg/kg, iv; type: ADME, organism-based; conditions: in vivo
[22] = system: Human immunodeficiency virus 1; assay: Potency index, ratio of (E)-3-[3,5-dimethyl-4-[2-[4-[(4-methylsulfonylpiperazin-1-yl)methyl]anilino]pyrimidin-4-yl]oxy-phenyl]prop-2-enenitrile EC50 to test compound EC50 for antiviral activity against HIV1 IIIB; type: functional
[23] = system: Human immunodeficiency virus 1; assay: Potency index, ratio of efavirenz EC50 to test compound EC50 for antiviral activity against HIV1 harboring F227L/V106A double mutant; type: functional
[24] = system: Human immunodeficiency virus 1; assay: Potency index, ratio of etravirine EC50 to test compound EC50 for antiviral activity against HIV1 harboring K103 N mutant; type: functional
[25] = Cmax in Sprague-Dawley rat at 2 mg/kg, iv; type: ADME, organism-based; conditions: in vivo
[26] = AUCt in Sprague-Dawley rat at 2 mg/kg, iv; type: ADME, organism-based; conditions: in vivo
Cytochrome P450 2C19 = Cytochrome P450 2C19 (Homo sapiens, UniProt P33261); assay: Inhibition of CYP2C19 (unknown origin); type: ADME
Chain of Cytochrome P450 2C19 (P33261 whole entry): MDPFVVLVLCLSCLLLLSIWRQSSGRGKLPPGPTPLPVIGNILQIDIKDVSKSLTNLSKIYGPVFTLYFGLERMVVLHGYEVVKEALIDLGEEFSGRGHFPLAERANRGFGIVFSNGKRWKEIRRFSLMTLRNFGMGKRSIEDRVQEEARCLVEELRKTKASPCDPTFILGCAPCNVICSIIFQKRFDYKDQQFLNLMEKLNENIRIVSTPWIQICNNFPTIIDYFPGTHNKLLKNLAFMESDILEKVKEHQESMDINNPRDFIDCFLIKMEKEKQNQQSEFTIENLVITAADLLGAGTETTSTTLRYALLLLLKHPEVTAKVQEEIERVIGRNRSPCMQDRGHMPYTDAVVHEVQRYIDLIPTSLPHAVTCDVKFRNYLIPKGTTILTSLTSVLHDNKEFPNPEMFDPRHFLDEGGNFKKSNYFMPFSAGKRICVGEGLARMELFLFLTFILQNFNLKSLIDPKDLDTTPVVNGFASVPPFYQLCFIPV

Cytochrome P450 1A2 = molecular target: T1, Cytochrome P450 1A2 (Homo sapiens, UniProt P05177); assay: Inhibition of CYP1A2 (unknown origin); type: ADME
T1 sequence (P05177 whole entry): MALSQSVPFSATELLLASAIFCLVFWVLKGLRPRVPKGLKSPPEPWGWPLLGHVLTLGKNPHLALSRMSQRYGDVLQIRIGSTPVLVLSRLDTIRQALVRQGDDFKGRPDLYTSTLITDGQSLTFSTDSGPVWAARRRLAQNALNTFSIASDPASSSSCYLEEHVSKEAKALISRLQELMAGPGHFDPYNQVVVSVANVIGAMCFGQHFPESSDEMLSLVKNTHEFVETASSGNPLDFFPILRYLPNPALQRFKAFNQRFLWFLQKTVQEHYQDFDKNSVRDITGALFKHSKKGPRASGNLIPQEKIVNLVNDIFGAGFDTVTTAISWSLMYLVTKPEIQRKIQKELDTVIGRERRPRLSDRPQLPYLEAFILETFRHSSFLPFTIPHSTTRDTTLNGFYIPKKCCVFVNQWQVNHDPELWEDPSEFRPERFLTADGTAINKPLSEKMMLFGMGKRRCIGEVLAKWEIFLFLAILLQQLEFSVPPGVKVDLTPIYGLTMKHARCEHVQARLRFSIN

[27] = system: Human immunodeficiency virus 1; assay: Potency index, ratio of nevirapine EC50 to test compound EC50 for antiviral activity against HIV1 harboring K103 N mutant; type: functional
[28] = system: Human immunodeficiency virus 1; assay: Potency index, ratio of etravirine EC50 to test compound EC50 for antiviral activity against HIV1 harboring E138K mutant; type: functional
[29] = Half life in Sprague-Dawley rat at 2 mg/kg, iv; type: ADME, organism-based; conditions: in vivo
[30] = system: Human immunodeficiency virus 1; assay: Potency index, ratio of (E)-3-[3,5-dimethyl-4-[2-[4-[(4-methylsulfonylpiperazin-1-yl)methyl]anilino]pyrimidin-4-yl]oxy-phenyl]prop-2-enenitrile EC50 to test compound EC50 for antiviral activity against HIV1 harboring K103 N mutant; type: functional
[31] = system: Human immunodeficiency virus 1; assay: Potency index, ratio of nevirapine EC50 to test compound EC50 for antiviral activity against HIV1 IIIB; type: functional
Cytochrome P450 3A4 = Cytochrome P450 3A4 (Homo sapiens, UniProt P08684); assay: Inhibition of CYP3A4 (unknown origin); type: ADME
Chain of Cytochrome P450 3A4 (P08684 whole entry): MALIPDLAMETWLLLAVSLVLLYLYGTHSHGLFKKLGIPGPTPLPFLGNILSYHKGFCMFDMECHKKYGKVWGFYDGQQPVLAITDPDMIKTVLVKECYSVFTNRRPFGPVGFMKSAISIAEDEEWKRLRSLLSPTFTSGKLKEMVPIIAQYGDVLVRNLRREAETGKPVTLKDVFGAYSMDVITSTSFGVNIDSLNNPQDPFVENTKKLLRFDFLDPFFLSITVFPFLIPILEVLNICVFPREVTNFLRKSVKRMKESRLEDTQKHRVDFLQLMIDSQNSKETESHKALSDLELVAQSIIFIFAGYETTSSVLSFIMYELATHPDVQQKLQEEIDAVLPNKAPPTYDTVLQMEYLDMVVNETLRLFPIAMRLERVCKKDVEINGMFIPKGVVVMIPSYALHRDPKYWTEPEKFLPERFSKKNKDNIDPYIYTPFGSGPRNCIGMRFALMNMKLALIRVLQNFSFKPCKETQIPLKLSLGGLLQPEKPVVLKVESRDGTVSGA

[32] = system: Human immunodeficiency virus 1; assay: Potency index, ratio of efavirenz EC50 to test compound EC50 for antiviral activity against HIV1 IIIB; type: functional
[33] = system: Human immunodeficiency virus 1; assay: Potency index, ratio of (E)-3-[3,5-dimethyl-4-[2-[4-[(4-methylsulfonylpiperazin-1-yl)methyl]anilino]pyrimidin-4-yl]oxy-phenyl]prop-2-enenitrile EC50 to test compound EC50 for antiviral activity against HIV1 harboring F227L/V106A double mutant; type: functional
Cytochrome P450 2D6 = Cytochrome P450 2D6 (Homo sapiens, UniProt P10635); assay: Inhibition of CYP2D6 (unknown origin); type: ADME
Chain of Cytochrome P450 2D6 (P10635 whole entry): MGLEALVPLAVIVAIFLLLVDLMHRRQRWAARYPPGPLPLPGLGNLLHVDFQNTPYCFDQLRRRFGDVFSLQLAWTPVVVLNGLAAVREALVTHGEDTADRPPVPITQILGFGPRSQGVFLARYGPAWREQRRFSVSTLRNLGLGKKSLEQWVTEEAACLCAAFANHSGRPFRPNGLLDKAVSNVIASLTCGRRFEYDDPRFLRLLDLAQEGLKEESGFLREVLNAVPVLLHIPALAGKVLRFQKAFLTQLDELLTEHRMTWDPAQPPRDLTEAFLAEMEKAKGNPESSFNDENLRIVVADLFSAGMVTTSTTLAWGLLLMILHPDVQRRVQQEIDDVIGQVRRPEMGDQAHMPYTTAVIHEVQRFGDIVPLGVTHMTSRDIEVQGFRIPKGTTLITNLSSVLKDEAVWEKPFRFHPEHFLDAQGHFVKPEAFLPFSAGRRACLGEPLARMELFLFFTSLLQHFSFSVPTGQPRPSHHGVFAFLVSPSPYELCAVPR

IC50 [2]: 150 nM | EC50 [4]: > 186000 nM | EC50 [5]: 18 nM
Structure (SMILES): Cc1cc(C#N)cc(C)c1Oc1ccnc(Nc2ccc(N3CCN(S(=O)(=O)N(C)C)CC3)c(F)c2)n1
Activity [1]: inactive | Activity (MT4): Non-Toxic | CC50 [3]: 186000 nM | selectivity ratio [6]: 10300

Structure (SMILES): Cc1cc(/C=C/C#N)cc(C)c1Oc1ccnc(Nc2ccc(N3CCN(S(C)(=O)=O)CC3)c(F)c2)n1
EC50 [7]: 3 nM | selectivity ratio [8]: 5 | IC50 [2]: 40 nM | EC50 [9]: 34 nM | EC50 [10]: 22 nM | Activity (MT4): Non-Toxic | CC50 [3]: 3210 nM | EC50 [11]: 0.48 nM | EC50 [12]: 11 nM | EC50 [13]: 30 nM | EC50 [4]: 670 nM | EC50 [5]: 2 nM | EC50 [14]: > 3210 nM | selectivity ratio [6]: 1710

IC50 [2]: 100 nM | EC50 [11]: 5.67 nM | EC50 [5]: 5 nM
Structure (SMILES): Cc1cc(/C=C/C#N)cc(C)c1Oc1ccnc(Nc2ccc(N3CCN(S(=O)(=O)C4CC4)CC3)c(F)c2)n1
Activity (MT4): Non-Toxic | CC50 [3]: 170000 nM | Activity [15]: inactive | selectivity ratio [6]: 32100

Structure (SMILES): Cc1cc(C#N)cc(C)c1Oc1ccnc(Nc2ccc(N3CCN(S(=O)(=O)C(C)C)CC3)cc2)n1
Activity [1]: inactive | Activity (MT4): Non-Toxic

Structure (SMILES): Cc1cc(/C=C/C#N)cc(C)c1Oc1ccnc(Nc2ccc(N3CCS(=O)(=O)CC3)c(F)c2)n1
AUC(0-inf) [16]: 316 ng·h/mL | IC50 (Cytochrome P450 2C9): 5570 nM | clearance [17]: 106 mL/min/kg | Ratio EC50 [18]: 10.9 | Ratio EC50 [19]: 3.3 | Ratio EC50 [20]: 32 | EC50 [7]: 1 nM | selectivity ratio [8]: 86 | Vd [21]: 60.1 L/kg | IC50 [2]: 23 nM | EC50 [9]: 24 nM | EC50 [10]: 5 nM | Ratio EC50 [22]: 2.7 | Ratio EC50 [23]: 10 | Ratio EC50 [24]: 3.9 | Cmax [25]: 390 ng/mL | AUC(0-t) [26]: 297 ng·h/mL | CC50 [3]: 15800 nM | IC50 (Cytochrome P450 2C19): 5280 nM | IC50 (Cytochrome P450 1A2): 21200 nM | EC50 [12]: 6 nM | EC50 [13]: 8 nM | Ratio EC50 [27]: 5490 | EC50 [4]: 180 nM | EC50 [5]: 1 nM | Ratio EC50 [28]: 3.1 | EC50 [14]: 1170 nM | half-life [29]: 6.59 h | Ratio EC50 [30]: 3.4 | selectivity ratio [6]: 15500 | Ratio EC50 [31]: 190 | IC50 (Cytochrome P450 3A4): > 100000 nM | Ratio EC50 [32]: 3.7 | Ratio EC50 [33]: 10 | IC50 (Cytochrome P450 2D6): 14800 nM

Structure (SMILES): Cc1cc(/C=C/C#N)cc(C)c1Oc1ccnc(Nc2ccc(N3CCN(S(C)(=O)=O)CC3)cc2)n1
EC50 [7]: 37 nM | selectivity ratio [8]: < 1 | IC50 [2]: 65 nM | EC50 [9]: 270 nM | EC50 [10]: 370 nM | Activity (MT4): Non-Toxic | CC50 [3]: 2570 nM | EC50 [11]: 1.84 nM | EC50 [12]: 850 nM | EC50 [13]: 960 nM | EC50 [4]: > 2570 nM | EC50 [5]: 5 nM | EC50 [14]: > 2570 nM | selectivity ratio [6]: 536

Structure (SMILES): Cc1cc(C#N)cc(C)c1Oc1ccnc(Nc2ccc(C3CCN(S(=O)(=O)C(C)C)CC3)cc2)n1
Activity [1]: inactive | Activity (MT4): Non-Toxic

Structure (SMILES): Cc1cc(/C=C/C#N)cc(C)c1Oc1ccnc(Nc2ccc(N3CCN(S(=O)(=O)N(C)C)CC3)c(F)c2)n1
EC50 [7]: 9 nM | selectivity ratio [8]: < 1 | IC50 [2]: 78 nM | EC50 [9]: 68 nM | EC50 [10]: 58 nM | Activity (MT4): Non-Toxic | CC50 [3]: 4590 nM | EC50 [11]: 5.67 nM | EC50 [12]: 32 nM | EC50 [13]: 120 nM | EC50 [4]: > 4590 nM | EC50 [5]: 5 nM | EC50 [14]: > 4590 nM | selectivity ratio [6]: 993

Structure (SMILES): Cc1cc(C#N)cc(C)c1Oc1ccnc(Nc2ccc(C3CCN(S(C)(=O)=O)CC3)cc2)n1
Activity [1]: inactive | Activity (MT4): Non-Toxic
